Among the data in BindingDB's records for doi:10.1021/jm970814z (University of Sydney, 1998) are Ki values, retold here.

Where “and” joins values, the source holds several entries; their conditions need not be identical. Equal values may be shown once.

For this assay, the target named is CAD protein (Mesocricetus auratus). Kind of assay: Compound ability to inhibit the catalytic activity of hamster Dihydroorotase (DHOase) expressed in Escherichia coli.

`O=C1CP(O)(O)=CC(C(=O)O)N1` (configuration not stated) [4-Hydroxy-4,6-dioxo-4lambda*5*-[1,4]azaphosphinane-2-carboxylic acid]: the Ki was 4 µM. In other words, the single-digit micromolar range.
With `O=C1CP(O)(S)=C[C@@H](C(=O)O)N1` (stereo partly drawn) [(2R,4S)-4-Mercapto-4,6-dioxo-4lambda*5*-[1,4]azaphosphinane-2-carboxylic acid], the Ki was 2.9 µM and 3.1 µM.

As a reminder, the Ki is a dissociation constant, usually derived from enzyme kinetics or from competition with a known ligand.
